Data on six molecules can be found in patent publication US9737514B2, “Methods and compositions for the treatment of proliferative vascular disorders” (Children's Medical Center Corporation, priority 2011, dated 2017).

The structures appear in SMILES notation.

Data set [1] concerns HemSCs. Put plainly: HemSC proliferation dose-response. It is filed as cell-based, human. The method, then: (§1) FIG. 1A depicts dose-response curves of HemSCs (squares), NHDF (triangles), and BM-MSCs (circles) treated with Rapamycin. Error bars denote standard deviation (SD) (n=32). FIG. 1B depicts a graph of the quantification of PCNA-positive cells in HemSCs treated with Rapamycin. Error bars denote SD (n=8). *P<0.05 compared with the non-treated group. FIG. 1C depicts the results of a Western blot for phospho4EBP-1(565) and total 4EBP-1 in HemSCs serum-starved for 24 hours, pretreated with vehicle alone (“0”) or rapamycin for 20 minutes and then stimulated with media containing serum and growth factors for 30 minutes. FIG. 1D depicts a graph of the bands in FIG. 1C quantified using ImageJ; normalized to β-actin.
(§2) Proliferating cell nuclear antigen (PCNA) served as an additional measure of proliferation (Prelich et al., 1987) (Hall and Levison, 1990).
(§3) To do this, the anti-proliferative drug Roscovitine, a purine analogue andcyclin-dependent kinase inhibitor (De Azevedo et al., 1997) (Meijer et al., 1997) was used. First, the effect of Roscovitine on HemSCs proliferation was titrated in vitro. […] Next, HemSCs were pre-treated in vitro for three days with either Roscovitine or Rapamycin, the drugs washed out, and the cells then injected with untreated cbEPC into mice.

The next data set relates to BM-MSCs. The data set is described as follows: BM-MSC proliferation dose-response. It is filed as cell-based, human. Particulars: FIG. 1A. The procedure:
as §1, §2

In data set [2] the test system is normal human dermal fibroblasts (NHDF). Put plainly: NHDF proliferation dose-response. Conditions: FIG. 1A. It counts as cell-based. The procedure: as §1, §2
Data set [3] concerns HemSCs. The data set is described as follows: PCNA immunostaining of HemSCs. It is filed as cell-based, human. Conditions: 10 ng/ml. The method, then: as §2
Human-specific CD31 (DakoCytomation) immunostaining was performed as described (MeleroMartin et al., 2007), (Roelofs et al., 2003). PhosphoAKT/VE-cadherin double immunofluorescence was done on cryosections. Slides were fixed with 8% paraformaldehyde, blocked with 1% BSA and incubated with anti-VE-Cadherin (goat, Santa Cruz Biotechnology, Santa Cruz, Calif.) 1:100 for one hour, followed by anti-goat Texas-Red (Vector Labs, Burlingame, Calif.) 1:200. Following an additional blocking step (1% BSA, 0.1% Triton-X), AntipAKT (mouse, Cell Signaling, Danvers, Mass.) 1:100, was applied over night in 4° C. and next, anti-mouse Alexa Fluor 488 (Invitrogen) 1:300 for one hour. PCNA immunostaining was done using anti-PCNA 1:500 (mouse, Santa Cruz Biotechnology, Santa-Cruz, Calif.). For immunostaining of paraffing embedded Matrigel explants, antigen retrieval was done by citrate buffer. Sections were blocked by 5% horse serum and incubated with a secondary anti-mouse horseradish peroxidase (HRP) conjugate at 1:300 (Vector Labs, Burlingame, Calif.). For immunofluorescence, cells were fixed with methanol, blocked by 1% BSA.

Data set [4] deals with HemSCs. The data set is described as follows: Viability / cell morphology by phalloidin staining. It is filed as cell-based, human.
The subject of another data set is mTOR. The data set is described as follows: Western blot of phosphorylated 4EBP1 in HemSCs. It is filed as cell-based, human. Conditions: HemSCs serum-starved 24 hours, pretreated 20 minutes. The method, then: as §1
(In general: A western blot detects proteins with antibodies after separation by electrophoresis.)

Data set [5] relates to HemSCs and cbEPCs in Matrigel. The data set is described as follows: Two cell model of IH (HemSCs and cbEPCs in Matrigel), systemic drug. It counts as in vivo, nude mice. Particulars: daily intra-peritoneal injection; for vascularization of Matrigel implants / formation of blood vessels (MVD): compared with vehicle. The method, then:
(§4) Next, the effect of systemic Rapamycin was tested in a two cell model of IH described previously (Greenberger et al., 2010). HemSCs and cbEPCs were mixed with Matrigel and injected subcutaneously in nude mice. This two-cell model has advantages over injecting HemSC alone: first it is more robust and thus more sensitive for detecting dose-response activity. Second, it allows one to test separately the effect of rapamycin on the HemSC versus cbEPCs, which are primary ECs isolated from cord blood that serve as prototypic young ECs. Rapamycin was administered daily by intra-peritoneal injection.
To test this concept, mice were given i.p. injections of low dose of dexamethasone (0.25 mg/kg), low dose of Rapamycin (0.25 mg/kg) or the combination of both.
(§5) Nude/Nude mice were purchased from Massachusetts General Hospital animal facility. Procedures were approved by the Animal Care and Use Committees of the Children's Hospital, Boston. Anesthesia was induced with 4% isofluorane and maintenance in 1-3% oxygen. Mice were anesthetized once for up to 5 min. The one cell and two cell models of IH were performed as reported (Greenberger et al., 2010; Khan et al., 2008) and microvessel density (MVD) was assessed by counting red blood cell-filled lumens (Melero-Martin et al., 2007). Values reported for each experimental condition correspond to the average MVD value±standard error of the mean (SEM) obtained from all the individual animals.
Rapamycin, Everolimus and Temsirolimus were purchased from LC Laboratories. Drugs were dissolved in DMSO followed by solvent solution (5% polyethylene glycol, 0.2% carboxymethylcellulose and 0.25% Tween-80 in H2O). Aliquots were kept in −20° C. Mice were given daily intra-peritoneal (i.p.) injections containing 200 μl of drug or the vehicle alone.

The next data set deals with HemSCs in Matrigel. The data set is described as follows: One cell model of IH (HemSC implanted alone). It counts as in vivo, nude mice. Conditions: i.p. on days 1-6, explanted day 7. The procedure:
as §4, §5

In data set [6] the test system is HemSCs. The data set is described as follows: Two cell model of IH with HemSCs pre-treated in vitro. It is filed as in vivo, nude mice.
Source text: To test whether or not HemSCs are a target of Rapamycin, versus the cbEPCs or a murine host cell, HemSCs were pre-treated with Rapamycin for three days in vitro, the drug was washing out, and the Rapamycin-treated or control HemSCs were resuspended with cbEPCs in Matrigel, and injected into mice.
as §3, §5

Data set [7] relates to cbEPCs. The data set is described as follows: Two cell model of IH with cbEPCs pre-treated in vitro. It is filed as in vivo, nude mice.
Data set [8] relates to HemSCs. Put plainly: Clonogenic assay (self-renewal). It counts as cell-based, human. Particulars: pre-treatment 20 ng/ml 4 days, colonies at 9 days. The method, then: To test self-renewal capacity of HemSCs, a clonogenic assay was performed (Ingram et al., 2004).
HemSCs were incubated with Rapamycin 20 ng/ml or DMSO, as a control, for 4 days. Following washout of the drug, cells were serially diluted to 8 cells per ml and plated in 384 well plates, 40 μl/well. Medium was replaced every 48 hours. At day 9, cells were fixed and stained with Hoechst. Following image capture by automated fluorescence microscopy, colony formation and the number of cells/colony were determined by quantifying the number of wells with Hoechst-stained nuclei and the number of Hoechst-stained nuclei/well using MetaXpress Software.

Data set [9] relates to HemSCs. Put plainly: Adipogenic differentiation of HemSCs. It is filed as cell-based, human. Particulars: adipogenic differentiation protocol.
Experimental: (§6) Whether the multi-lineage differentiation of HemSCs could be altered by Rapamycin was assayed.
(§7) Differentiation assays towards endothelial cells and adipocytes were done as reported (Khan et al., 2008).
In data set [10] the test system is HemSCs. Put plainly: Endothelial differentiation of HemSCs. It is filed as cell-based, human. Conditions: in vitro.
Experimental: as §6, §7
The subject of data set [11] is HemSCs. The data set is described as follows: SMC/pericyte marker expression in HemSCs (qPCR, Western blot). It is filed as cell-based, human. (In general: Real-time PCR tracks product formation cycle by cycle.)
The next data set has as its system HemSC. Put plainly: Calcium influx assay by fluorescence microscopy. It counts as cell-based, human.
Data set [12] relates to cbEPCs. The data set is described as follows: Endothelial proliferation assay. It counts as cell-based, human. Particulars: 20 ng/ml, 48 hours, not rescued by VEGF-A or PLGF-1.
Experimental: FIG. 11A depicts a graph of cell number of cbEPCs treated for 48 hours with Rapamycin or (20 ng/ml) DMSO as a control, in the presence of either VEGF-A (37.5 ng/ml), PLGF-1 (37.5 ng/ml) or the combination. Cell number was quantified by automatic microscopy and software analysis. Bars denote the standard deviation with n=32 for each treatment combination. FIG. 11B depicts a graph of cell number of cbEPCs treated for 48 hours with Everolimus (20 ng/ml), Temsirolimus (200 ng/ml) or DMSO as a control, in the presence of VEGF-A (37.5 ng/ml) or PLGF-1 (37.5 ng/ml). Cell number was quantified by automatic microscopy and software analysis. Bars denote the standard deviation with n=32 for each treatment combination.
To study this effect, Rapamycin was tested on cbEPCs.
cbEPCs at passages 6-10 were plated in 384-well plates at 1000 cells per well. 24 hours later, media was removed and replaced with EBM-2 5% fetal bovine serum media containing the recombinant human proteins VEGF-A at 37.5 ng/ml (R&D Systems) or PlGF-1 at 37.5 ng/ml (R&D Systems), and the drug compounds Rapamycin (20 ng/ml), Everolimus 20 ng/ml or Temsirolimus 200 ng/ml in replicates of 32. 48 hours later, cells were fixed and stained with Hoechst (Invitrogen). Following image capture by automated fluorescence microscopy, cell number was determined using MetaXpress Software.
The test system of data set [13] is human ECs, including HemECs. Put plainly: PLGF-1 expression in endothelial cells (ELISA, RT-PCR). It counts as cell-based. Particulars: 48 hours of incubation. A general note: ELISA stands for enzyme-linked immunosorbent assay.
Experimental: FIG. 11C depicts a graph of quantitative ELISA analysis of PLGF-1 protein secreted from HemECs and Human Dermal Microvascular Endothelial Cells (HDMECs) following 48 hours of incubation with Rapamycin. FIG. 11D depicts a graph of the dose-response of Rapamycin on PLGF-1 mRNA expression in HemECs. Quantitative RT-PCR analyses of HemECs PLGF-1 expression following 48 hours of incubation with Rapamycin at the indicated concentration. FIG. 11E depicts a graph of the dose-response of Rapamycin on PLGF-1 protein secretion from HemECs. PLGF-1 was measured by quantitative ELISA analysis following 48 hours of incubation with Rapamycin at the indicated concentration.
(§8) An enzyme-linked immunoassay (ELISA) was performed using Quantikine Human VEGF and PLGF (R&D Systems). […]
The subject of data set [14] is HemSCs and cbEPCs in Matrigel. Put plainly: Regression of pre-existing vessels, contrast-enhanced micro-ultrasonic imaging of Matrigel implants. It is filed as in vivo, nude mice. Conditions: 2 mg/kg i.p.
Experimental: To test this, contrast-enhanced micro-ultrasonic imaging was used to measure blood flow in the Matrigel implants. […] For the experiment, mice were injected with cells and imaged at day 7 to record baseline blood flow in the implants. Mice were then randomized into two groups: Rapamycin, 2 mg/kg by i.p. injection or vehicle alone by i.p. injection. At day 17, follow-up imaging was performed.
Contrast-enhanced high resolution ultrasonic (US) imaging of the blood flow in Matrigel implants was performed using a Vevo 770 System with a 40-MHz RMV scanhead (Visual Sonics) (Loveless et al., 2009; Olive et al., 2009). MicroMarker non-targeting contrast agent (Visualsonics) was prepared according to manufacturer's guidelines. For imaging, mice were anesthetized with 2% isofluorane, coupling gel was applied to cover the entire region of interest, and 2-D B-mode scout images established the central slice of the Matrigel. The transducer was placed such that the 6 mm focal spot converged at the center of the Matrigel. Baseline images were acquired in Contrast Mode, and a 50 μL bolus of contrast agent suspension was administered via tail vein catheter during acquisition of a second contrast video.
Data set [15] concerns HemSCs. The data set is described as follows: Pro-angiogenic cytokine expression (antibody array, ELISA, qPCR). It counts as cell-based, human.
Experimental: To investigate whether corticosteroids and Rapamycin share common mechanisms for suppressing HemSCs-mediated vascularization, the effect of Rapamycin on expression of a panel of 43 pro-angiogenic proteins was evaluated.
Angiogenic Cytokine Antibody Array. Conditioned media from HemSCs and HemECs, treated or untreated with dexamethasone or Rapamycin, were analyzed for protein expression using RayBio® Human Angiogenesis Antibody Array C Series 1000 (RayBiotech); according to the manufacturer's instructions. Blots were analyzed by with image J software (NIH).
as §8
Data set [16] relates to HemSCs. Particulars: cited from earlier work.

As for `CO[C@H]1C[C@@H]2CC[C@@H](C)[C@@](O)(O2)C(=O)C(=O)N2CCCC[C@H]2C(=O)O[C@H]([C@H](C)C[C@@H]2CC[C@@H](O)[C@H](OC)C2)CC(=O)[C@H](C)/C=C(\C)[C@@H](O)[C@@H](OC)C(=O)[C@H](C)C[C@H](C)/C=C/C=C/C=C/1C` [Rapamycin, rapamycin], the “inhibition of HemSCs proliferation” value in the data set on HemSCs [1] (concentrations of 1 ng/ml and higher) is approximately 40%. Also, in the data set on BM-MSCs, the “sensitivity of BM-MSCs proliferation compared with HemSCs” value is recorded as “less sensitive”. The “sensitivity of NHDF proliferation compared with HemSCs” value in [2] is on record as “less sensitive”. Besides, in the data set on HemSCs [3], the “suppression of percentage of PCNA-positive HemSCs” value amounted to 80%. Besides, the “viability (normal cell morphology, phalloidin staining)” value in the data set with HemSCs [4] is listed as “not affected”. In the data set on mTOR, the “constitutive and serum/growth factor stimulated levels of phosphorylated 4EBP1” value was “dose-dependent decrease”. For the same molecule, the “de novo formation of human CD31-positive blood vessels” value in data set [5] (anti-human CD31 staining) was “inhibited the de novo formation”. Also, in data set [5], the “vascularization of Matrigel implants / formation of blood vessels (MVD)” value was “dose-dependent inhibition”. Besides, the “vessel formation, HemSC implanted alone” value with HemSCs in Matrigel was “inhibited vessel formation”. Further, the “inhibition of microvessel density” value in the data set with HemSCs [6] (HemSCs pre-treated in vitro three days, washed out, injected with untreated cbEPC (Roscovitine comparison experiment)) is recorded as 60%. For the same molecule, in the data set on HemSCs [6] (HemSCs pre-treated three days in vitro, drug washed out, injected with cbEPCs), the “inhibition of blood vessel formation” value worked out at 80%. In addition, the “blood vessel formation after pre-treatment of cbEPCs” value in the data set on cbEPCs [7] is “no effect”. Besides, in the data set with HemSCs [8], the “appearance of colonies with >500 cells” value is “abolished” and the “decrease in the number of HemSC colonies formed” value came to 60%. Moreover, the “expression of adipogenic markers LPL, C/EBP-α and accumulation of lipid droplets” value with HemSCs [9] is recorded as “blocked expression”. In addition, in the data set with HemSCs [10], the “ability of HemSCs to differentiate towards an endothelial phenotype” value is recorded as “No effect”. For the same molecule, the “expression levels of calponin, NG2 and PDGF-Rβ” value in the data set on HemSCs [11] (FIG. 10A) is recorded as “unchanged”. In addition, in the data set with HemSCs [11] (incubation four days), the “SM22-alpha and αSMA at the protein level” value is “increased”; the “smMHC and SM22-alpha transcript levels” value is “upregulation”. Moreover, in the data set with HemSC (HemSC treated 20 ng/ml six days), the “functional features of SMCs (calcium influx)” value is “express L-type voltage gated channels”. In the data set on cbEPCs [12], the “growth of cbEPCs” value was “suppressed growth”. Also, the “endogenous PLGF-1” value in data set [13] was “dose-dependent suppression”. In addition, the “vascularization of Matrigel implants macroscopically and by histological analysis” value in [14] is given as “less vascularized”. Further, the “blood flow in the implant (contrast intensity)” value in [14] (day 7 to day 17) is reported as “reduced blood flow”. Besides, the “expression of VEGF-A by HemSCs at the mRNA or protein level” value with HemSCs [15] is “did not block”. Also, the “angiogenin and PLGF-1 expression” value in the data set with HemSCs [15] (in HemSCs and cbEPCs) was “downregulated”.

Regarding `CO[C@H]1C[C@@H]2CC[C@@H](C)[C@@](O)(O2)C(=O)C(=O)N2CCCC[C@H]2C(=O)O[C@H]([C@H](C)C[C@@H]2CC[C@@H](OC(=O)C(C)(CO)CO)[C@H](OC)C2)CC(=O)[C@H](C)/C=C(\C)[C@@H](O)[C@@H](OC)C(=O)[C@H](C)C[C@H](C)/C=C/C=C/C=C/1C` [temsirolimus], the “vascularization of Matrigel implants / formation of blood vessels (MVD)” value in data set [5] was “significantly inhibited”.

As to `CO[C@H]1C[C@@H]2CC[C@@H](C)[C@@](O)(O2)C(=O)C(=O)N2CCCC[C@H]2C(=O)O[C@H]([C@H](C)C[C@@H]2CC[C@@H](OCCO)[C@H](OC)C2)CC(=O)[C@H](C)/C=C(\C)[C@@H](O)[C@@H](OC)C(=O)[C@H](C)C[C@H](C)/C=C/C=C/C=C/1C` [everolimus], in data set [5], the “vascularization of Matrigel implants / formation of blood vessels (MVD)” value is “significantly inhibited”.

Turning to `COC(=O)C1=C(C)NC(C)=C(C(=O)OC)C1c1ccccc1[N+](=O)[O-]` [Nifedipine, nifedipine], in the data set with HemSC (10 uM, Rapamycin-treated HemSC), the “spontaneous Ca2+ oscillations” value was “cessation of oscillations”.

For the molecule `CC[C@H](CO)Nc1nc(NCc2ccccc2)c2ncn(C(C)C)c2n1` [Roscovitine], the inhibition at 3.125 µM in the data set on HemSCs [1] (Homo sapiens, read-out: inhibition of HemSCs proliferation) came to 55%. For the same molecule, the “inhibition of microvessel density (in words)” value with HemSCs [6] (HemSCs pre-treated in vitro three days, washed out, injected with untreated cbEPC) is “did not”.

Regarding `C[C@@H]1C[C@H]2[C@@H]3CCC4=CC(=O)C=C[C@]4(C)[C@@]3(F)[C@@H](O)C[C@]2(C)[C@@]1(O)C(=O)CO` [Dexamethasone, dexamethasone], in the data set with HemSCs [16], the “VEGF-A, IL-6, MMP-1, MCP-1 and UPAR expression” value is reported as “suppressed”.
